Each structure is given as a SMILES string.

Assay [1] has as its system U-698-M. Briefly: Bliss excess, mean over the matrix (fraction); higher = more synergy. Conditions: U-[…], B-Cell Non-Hodgkin's Lymphoma. A digest of the protocol:
(§1)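 Bliss excess equals the observed combination effect minus the expected value EA + EB − EA·EB, where EA and EB are the effects of each agent alone. Combination Emax is the second-highest inhibition within the matrix. Inhibition was scaled from CellTiter-Glo 2.0 luminescence, with 0 set by vehicle wells and 1 by blank wells, after 72 hours of two-drug dosing of cells plated in 1536-well plates.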

Assay [2] relates to U-698-M. Kind of assay: combination Emax (second highest fraction inhibited in the dose matrix, 72 h); higher = more inhibition. As to conditions: B-Cell Non-Hodgkin's Lymphoma. The method in brief: as §1
The mark [3] stands for this setting: first compound max 1 µM, partner max 1 µM.
Setting [4] is: first compound max 1 µM, partner max 1 µM, 7x7.
[5] abbreviates: first compound max 1 µM, partner max 10 µM, 7x7.
Setting [6] is: first compound max 3 µM, partner max 3 µM.
Setting [7] is: first compound max 1 µM, partner max 0.3 µM.
The mark [8] stands for this setting: first compound max 1 µM, partner max 10 µM.
Where [9] appears, read: first compound max 1 µM, partner max 3 µM, 7x7.
Where [10] appears, read: first compound max 1 µM, partner max 0.3 µM, 7x7.

With `CN(C)CCCOc1ccc(-c2ccc3ncc4c(c3c2)n(C2CCOCC2)c(=O)n4C)cn1` [AZD0156] + C=CCn1c(=O)c2cnc(Nc3ccc(N4CCN(C)CC4)cc3)nc2n1-c1cccc(C(C)(C)O)n1 [AZD1775], the Bliss excess with U-698-M [1] (setting [3]) was -0.0399. Besides, the “combination Emax” value in the assay with U-698-M [2] (setting [3]) is 0.984. For `CN(C)CCCOc1ccc(-c2ccc3ncc4c(c3c2)n(C2CCOCC2)c(=O)n4C)cn1` [AZD0156] + CCN(CCO)CCCOc1ccc2c(Nc3cc(CC(=O)Nc4cccc(F)c4)[nH]n3)ncnc2c1 [AZD2811], in the assay on U-698-M [1] (setting [4]), the Bliss excess was -0.014. Also, the “combination Emax” value with U-698-M [2] (setting [4]) was 0.168. In the case of `CN(C)CCCOc1ccc(-c2ccc3ncc4c(c3c2)n(C2CCOCC2)c(=O)n4C)cn1` [AZD0156] + C[C@@H]1COCCN1C2=NC(=NC(=C2)C3(CC3)[S@](=N)(=O)C)C4=C5C=CNC5=NC=C4 [AZD6738], in the assay on U-698-M [1] (setting [5]), the Bliss excess was determined as 0.0473. In addition, the “combination Emax” value with U-698-M [2] (setting [5]) was determined as 0.978. As to `CN(C)CCCOc1ccc(-c2ccc3ncc4c(c3c2)n(C2CCOCC2)c(=O)n4C)cn1` [AZD0156] + O=C(c1cc(Cc2n[nH]c(=O)c3ccccc23)ccc1F)N1CCN(C(=O)C2CC2)CC1 [Olaparib], the Bliss excess in the assay with U-698-M [1] (setting [6]) came out at 0.0153. The “combination Emax” value in the assay on U-698-M [2] (setting [6]) was 0.378. On to `C=CCn1c(=O)c2cnc(Nc3ccc(N4CCN(C)CC4)cc3)nc2n1-c1cccc(C(C)(C)O)n1` [AZD1775] + C1CN(CCC1(C(=O)N[C@@H](CCO)C2=CC=C(C=C2)Cl)N)C3=NC=NC4=C3C=CN4 [Capivasertib], for which the Bliss excess in the assay on U-698-M [1] (setting [6]) is -0.0654. The “combination Emax” value with U-698-M [2] (setting [6]) was found to be 0.959. As for `C=CCn1c(=O)c2cnc(Nc3ccc(N4CCN(C)CC4)cc3)nc2n1-c1cccc(C(C)(C)O)n1` [AZD1775] + CCc1c2c(nc3ccc(O)cc13)-c1cc3c(c(=O)n1C2)COC(=O)[C@]3(O)CC [SN-38], in the assay on U-698-M [1] (setting [7]), the Bliss excess was determined as 0.0364. Further, the “combination Emax” value in the assay on U-698-M [2] (first compound max 1 µM, partner max 0.3 µM, may be a limit of the assay) was 1. Turning to `C=CCn1c(=O)c2cnc(Nc3ccc(N4CCN(C)CC4)cc3)nc2n1-c1cccc(C(C)(C)O)n1` [AZD1775] + C[C@@H]1COCCN1C2=NC(=NC(=C2)C3(CC3)[S@](=N)(=O)C)C4=C5C=CNC5=NC=C4 [AZD6738], the Bliss excess with U-698-M [1] (setting [8]) stood at 0.0479. The “combination Emax” value in the assay on U-698-M [2] (first compound max 1 µM, partner max 10 µM, may be a limit of the assay) stood at 1.

On to `C=CCn1c(=O)c2cnc(Nc3ccc(N4CCN(C)CC4)cc3)nc2n1-c1cccc(C(C)(C)O)n1` [AZD1775] + Nc1ccn([C@@H]2O[C@H](CO)[C@@H](O)C2(F)F)c(=O)n1 [Gemcitabine], for which the Bliss excess with U-698-M [1] (setting [7]) amounted to 0.116. For the same compound, the “combination Emax” value in the assay on U-698-M [2] (setting [7]) was 0.956.

`C=CCn1c(=O)c2cnc(Nc3ccc(N4CCN(C)CC4)cc3)nc2n1-c1cccc(C(C)(C)O)n1` [AZD1775] + O=C(c1cc(Cc2n[nH]c(=O)c3ccccc23)ccc1F)N1CCN(C(=O)C2CC2)CC1 [Olaparib]: in the assay on U-698-M [1] (setting [8]), the Bliss excess is -0.0077. The “combination Emax” value in the assay on U-698-M [2] (setting [8]) was 0.967. In the case of `CCN(CCO)CCCOc1ccc2c(Nc3cc(CC(=O)Nc4cccc(F)c4)[nH]n3)ncnc2c1` [AZD2811] + C=CCn1c(=O)c2cnc(Nc3ccc(N4CCN(C)CC4)cc3)nc2n1-c1cccc(C(C)(C)O)n1 [AZD1775], the Bliss excess in the assay on U-698-M [1] (setting [3]) is -0.0493. In addition, the “combination Emax” value in the assay with U-698-M [2] (setting [3]) was determined as 0.956. Regarding `CCN(CCO)CCCOc1ccc2c(Nc3cc(CC(=O)Nc4cccc(F)c4)[nH]n3)ncnc2c1` [AZD2811] + C[C@@H]1COCCN1C2=NC(=NC(=C2)C3(CC3)[S@](=N)(=O)C)C4=C5C=CNC5=NC=C4 [AZD6738], the Bliss excess in the assay with U-698-M [1] (setting [5]) came out at 0.0016. The “combination Emax” value in the assay on U-698-M [2] (setting [5]) came out at 0.956. In the case of `CCN(CCO)CCCOc1ccc2c(Nc3cc(CC(=O)Nc4cccc(F)c4)[nH]n3)ncnc2c1` [AZD2811] + O=C(c1cc(Cc2n[nH]c(=O)c3ccccc23)ccc1F)N1CCN(C(=O)C2CC2)CC1 [Olaparib], the Bliss excess in the assay on U-698-M [1] (setting [5]) is 0.0384. Besides, the “combination Emax” value with U-698-M [2] (setting [5]) worked out at 0.479. Regarding `CN(CCO)CC[C@H](CSc1ccccc1)Nc1ccc(S(=O)(=O)NC(=O)c2ccc(N3CCC([C@@H](O)c4ccccc4-c4ccc(Cl)cc4)CC3)cc2)cc1S(=O)(=O)C(F)(F)F` [AZD4320] + C1CN(CCC1(C(=O)N[C@@H](CCO)C2=CC=C(C=C2)Cl)N)C3=NC=NC4=C3C=CN4 [Capivasertib], in the assay on U-698-M [1] (setting [9]), the Bliss excess was 0.0056. In addition, the “combination Emax” value with U-698-M [2] (setting [9]) is 0.272. With `CN(CCO)CC[C@H](CSc1ccccc1)Nc1ccc(S(=O)(=O)NC(=O)c2ccc(N3CCC([C@@H](O)c4ccccc4-c4ccc(Cl)cc4)CC3)cc2)cc1S(=O)(=O)C(F)(F)F` [AZD4320] + C=CCn1c(=O)c2cnc(Nc3ccc(N4CCN(C)CC4)cc3)nc2n1-c1cccc(C(C)(C)O)n1 [AZD1775], in the assay on U-698-M [1] (setting [3]), the Bliss excess is -0.0221. In the assay on U-698-M [2] (setting [3]), the “combination Emax” value came to 0.931.

For the compound `CN(CCO)CC[C@H](CSc1ccccc1)Nc1ccc(S(=O)(=O)NC(=O)c2ccc(N3CCC([C@@H](O)c4ccccc4-c4ccc(Cl)cc4)CC3)cc2)cc1S(=O)(=O)C(F)(F)F` [AZD4320] + CC(=O)O[C@H]1C(=O)[C@@]2(C)[C@H]([C@H](OC(=O)c3ccccc3)[C@]3(O)C[C@H](OC(=O)[C@H](O)[C@@H](NC(=O)c4ccccc4)c4ccccc4)C(C)=C1C3(C)C)[C@]1(OC(C)=O)CO[C@@H]1C[C@@H]2O [Paclitaxel], the Bliss excess in the assay with U-698-M [1] (setting [9]) was -0.0109. Also, the “combination Emax” value in the assay on U-698-M [2] (first compound max 1 µM, partner max 3 µM, 7x7, may be a limit of the assay) was found to be 1.

Turning to `CN(CCO)CC[C@H](CSc1ccccc1)Nc1ccc(S(=O)(=O)NC(=O)c2ccc(N3CCC([C@@H](O)c4ccccc4-c4ccc(Cl)cc4)CC3)cc2)cc1S(=O)(=O)C(F)(F)F` [AZD4320] + CCN(CCO)CCCOc1ccc2c(Nc3cc(CC(=O)Nc4cccc(F)c4)[nH]n3)ncnc2c1 [AZD2811], the Bliss excess with U-698-M [1] (setting [4]) was -0.0275. The “combination Emax” value in the assay on U-698-M [2] (setting [4]) stood at 0.138. The like results for `CN(CCO)CC[C@H](CSc1ccccc1)Nc1ccc(S(=O)(=O)NC(=O)c2ccc(N3CCC([C@@H](O)c4ccccc4-c4ccc(Cl)cc4)CC3)cc2)cc1S(=O)(=O)C(F)(F)F` [AZD4320] + CN(C)CCCOc1ccc(-c2ccc3ncc4c(c3c2)n(C2CCOCC2)c(=O)n4C)cn1 [AZD0156] were, in that order, -0.0291 and 0.183. On to `CN(CCO)CC[C@H](CSc1ccccc1)Nc1ccc(S(=O)(=O)NC(=O)c2ccc(N3CCC([C@@H](O)c4ccccc4-c4ccc(Cl)cc4)CC3)cc2)cc1S(=O)(=O)C(F)(F)F` [AZD4320] + CS(=O)(=O)CCNCc1ccc(-c2ccc3ncnc(Nc4ccc(OCc5cccc(F)c5)c(Cl)c4)c3c2)o1 [Lapatinib], for which the Bliss excess in the assay with U-698-M [1] (setting [5]) was -0.0415. Besides, in the assay on U-698-M [2] (setting [5]), the “combination Emax” value came out at 0.551. As for `CN(CCO)CC[C@H](CSc1ccccc1)Nc1ccc(S(=O)(=O)NC(=O)c2ccc(N3CCC([C@@H](O)c4ccccc4-c4ccc(Cl)cc4)CC3)cc2)cc1S(=O)(=O)C(F)(F)F` [AZD4320] + C[C@@H]1COCCN1C2=NC(=NC(=C2)C3(CC3)[S@](=N)(=O)C)C4=C5C=CNC5=NC=C4 [AZD6738], the Bliss excess with U-698-M [1] (setting [5]) was -0.0427. The “combination Emax” value in the assay with U-698-M [2] (setting [5]) is 0.773. Take `CN(CCO)CC[C@H](CSc1ccccc1)Nc1ccc(S(=O)(=O)NC(=O)c2ccc(N3CCC([C@@H](O)c4ccccc4-c4ccc(Cl)cc4)CC3)cc2)cc1S(=O)(=O)C(F)(F)F` [AZD4320] + C[C@@H](Nc1cc(F)cc(F)c1)c1cc(C(=O)N(C)C)cc2c(=O)cc(N3CCOCC3)oc12 [AZD8186]: in the assay with U-698-M [1] (setting [9]), the Bliss excess is 0.0074. Also, the “combination Emax” value in the assay with U-698-M [2] (setting [9]) was found to be 0.348. `CN(CCO)CC[C@H](CSc1ccccc1)Nc1ccc(S(=O)(=O)NC(=O)c2ccc(N3CCC([C@@H](O)c4ccccc4-c4ccc(Cl)cc4)CC3)cc2)cc1S(=O)(=O)C(F)(F)F` [AZD4320] + Cc1cc2ncnn2cc1Nc1ncc2c(n1)n(C1CCOCC1)c(=O)n2C [AZD7648]: the Bliss excess in the assay with U-698-M [1] (setting [5]) was -0.016. Moreover, the “combination Emax” value in the assay on U-698-M [2] (setting [5]) worked out at 0.415. As for `CN(CCO)CC[C@H](CSc1ccccc1)Nc1ccc(S(=O)(=O)NC(=O)c2ccc(N3CCC([C@@H](O)c4ccccc4-c4ccc(Cl)cc4)CC3)cc2)cc1S(=O)(=O)C(F)(F)F` [AZD4320] + Cn1cnc2c(F)c(Nc3ccc(Br)cc3Cl)c(C(=O)NOCCO)cc21 [Selumetinib], the Bliss excess in the assay with U-698-M [1] (setting [9]) amounted to 0.058. Further, the “combination Emax” value in the assay on U-698-M [2] (setting [9]) was 0.42. For the compound `CN(CCO)CC[C@H](CSc1ccccc1)Nc1ccc(S(=O)(=O)NC(=O)c2ccc(N3CCC([C@@H](O)c4ccccc4-c4ccc(Cl)cc4)CC3)cc2)cc1S(=O)(=O)C(F)(F)F` [AZD4320] + Nc1ccn([C@@H]2O[C@H](CO)[C@@H](O)C2(F)F)c(=O)n1 [Gemcitabine], the Bliss excess with U-698-M [1] (setting [10]) was -0.0159. In addition, the “combination Emax” value with U-698-M [2] (setting [10]) was 0.595.

Turning to `COc1nnc2ccc(N3CCC(c4ccc(OCCN5CCN(C)C(=O)[C@H]5C)cc4)CC3)nn12` [AZD5153] + C=CCn1c(=O)c2cnc(Nc3ccc(N4CCN(C)CC4)cc3)nc2n1-c1cccc(C(C)(C)O)n1 [AZD1775], the Bliss excess with U-698-M [1] (setting [3]) was -0.0574. Also, in the assay on U-698-M [2] (setting [3]), the “combination Emax” value amounted to 0.961. For `Cc1c2c(nn1C)CSCc1cc(n(C)n1)CSc1cc(c3ccccc3c1)OCCCc1c(C(=O)O)n(C)c3c-2c(Cl)ccc13` [AZD5991] + C=CCn1c(=O)c2cnc(Nc3ccc(N4CCN(C)CC4)cc3)nc2n1-c1cccc(C(C)(C)O)n1 [AZD1775], the “combination Emax” value in the assay on U-698-M [2] (first compound max 1 µM, partner max 1 µM, may be a limit of the assay) came to 1.

These data come from the supplement of paper PMC11061612.
